In the NIST ThermoML archive (doi:10.1021/acs.jced.7b00195):

Conditions: Gas, Burnett expansion method

CCF [fluoroethane]
Conditions	mass density [kg/m3]
278.38 K, 201.28 kPa	4.281
278.38 K, 432.22 kPa	9.679
278.39 K, 297.17 kPa	6.437
283.26 K, 303.56 kPa	6.463
283.26 K, 442.81 kPa	9.718
283.27 K, 205.41 kPa	4.298
288.2 K, 209.64 kPa	4.316
288.21 K, 309.96 kPa	6.489
288.21 K, 452.92 kPa	9.758
293.09 K, 213.69 kPa	4.313
293.09 K, 316.32 kPa	6.485
293.1 K, 143.41 kPa	2.868
293.1 K, 462.98 kPa	9.751
298.65 K, 323.48 kPa	6.515
298.65 K, 682.94 kPa	14.731
298.66 K, 146.61 kPa	2.881
298.66 K, 218.72 kPa	4.333
298.66 K, 474.3 kPa	9.797
303.31 K, 149.42 kPa	2.894
303.31 K, 222.77 kPa	4.351
303.31 K, 329.55 kPa	6.543
303.31 K, 697.8 kPa	14.795
303.32 K, 483.63 kPa	9.838
308.96 K, 227.65 kPa	4.351
308.96 K, 336.88 kPa	6.542
308.97 K, 494.66 kPa	9.837
308.97 K, 715.6 kPa	14.793
308.98 K, 152.32 kPa	2.893
313.8 K, 155.2 kPa	2.907
313.8 K, 343.12 kPa	6.572
313.8 K, 1036.8 kPa	22.346
313.81 K, 231.58 kPa	4.371
313.81 K, 504.31 kPa	9.882
313.81 K, 730.5 kPa	14.86
318.66 K, 513.87 kPa	9.903
318.67 K, 158.08 kPa	2.912
318.67 K, 235.35 kPa	4.379
318.67 K, 349.39 kPa	6.585
318.67 K, 745.44 kPa	14.89
318.67 K, 1060.9 kPa	22.39
323.51 K, 355.59 kPa	6.601
323.51 K, 760.32 kPa	14.926
323.51 K, 1084.6 kPa	22.444
323.52 K, 160.85 kPa	2.919
323.52 K, 239.62 kPa	4.39
323.52 K, 523.39 kPa	9.926
328.42 K, 243.93 kPa	4.403
328.42 K, 532.98 kPa	9.955
328.42 K, 775.13 kPa	14.969
328.42 K, 1108.3 kPa	22.509
328.42 K, 1539.5 kPa	33.847
328.43 K, 163.8 kPa	2.928
328.43 K, 361.91 kPa	6.62
333.29 K, 541.96 kPa	9.995
333.3 K, 248.18 kPa	4.42
333.3 K, 368.16 kPa	6.647
333.3 K, 789.86 kPa	15.029
333.3 K, 1131.5 kPa	22.599
333.31 K, 166.7 kPa	2.94
338.15 K, 252.41 kPa	4.426
338.15 K, 374.3 kPa	6.655
338.15 K, 551.38 kPa	10.008
338.15 K, 1614.5 kPa	34.027
338.16 K, 169.6 kPa	2.943
338.16 K, 804.44 kPa	15.048
338.16 K, 1154.5 kPa	22.629
343.01 K, 256.69 kPa	4.428
343.01 K, 380.56 kPa	6.659
343.01 K, 818.91 kPa	15.056
343.02 K, 560.82 kPa	10.013
343.02 K, 1177.4 kPa	22.64
343.02 K, 1651.3 kPa	34.043
343.02 K, 2227.5 kPa	51.191
343.03 K, 172.53 kPa	2.945
347.85 K, 175.51 kPa	2.953
347.85 K, 570.22 kPa	10.041
347.85 K, 833.34 kPa	15.099
347.85 K, 1687.6 kPa	34.14
347.85 K, 2287.3 kPa	51.336
347.86 K, 260.96 kPa	4.441
347.86 K, 386.83 kPa	6.677
347.86 K, 1200 kPa	22.704
352.74 K, 265.25 kPa	4.438
352.74 K, 393.24 kPa	6.674
352.74 K, 579.94 kPa	10.036
352.74 K, 1724 kPa	34.121
352.74 K, 2347.1 kPa	51.308
352.74 K, 3018.7 kPa	77.15
352.75 K, 178.77 kPa	2.951
352.75 K, 847.82 kPa	15.09
352.75 K, 1222.3 kPa	22.691
358.61 K, 248.43 kPa	4.077
358.61 K, 544.42 kPa	9.219
358.61 K, 1159 kPa	20.845
358.61 K, 1648.3 kPa	31.345
358.61 K, 2274.6 kPa	47.133
358.62 K, 368.4 kPa	6.131
358.62 K, 799.33 kPa	13.862
363.36 K, 252.39 kPa	4.076
363.36 K, 553.08 kPa	9.217
363.36 K, 2325.7 kPa	47.122
363.36 K, 3082.3 kPa	70.859
363.37 K, 374.25 kPa	6.129
363.37 K, 811.8 kPa	13.859
363.37 K, 1178.9 kPa	20.84
363.37 K, 1680 kPa	31.337
368.26 K, 256.54 kPa	4.087
368.26 K, 380.26 kPa	6.145
368.26 K, 561.93 kPa	9.24
368.26 K, 825.1 kPa	13.895
368.26 K, 1199.4 kPa	20.894
368.26 K, 1712.2 kPa	31.418
368.26 K, 2378.2 kPa	47.243
368.27 K, 3165.9 kPa	71.038
373.13 K, 838.52 kPa	13.867
373.14 K, 260.73 kPa	4.078
373.14 K, 386.27 kPa	6.133
373.14 K, 1219.8 kPa	20.851
373.14 K, 1744.1 kPa	31.354
373.14 K, 2430.1 kPa	47.146
373.14 K, 3250.9 kPa	70.894
373.14 K, 4091.8 kPa	106.604
373.15 K, 570.74 kPa	9.221
378.01 K, 264.55 kPa	4.087
378.01 K, 391.92 kPa	6.145
378.01 K, 851.98 kPa	13.896
378.01 K, 1240 kPa	20.895
378.01 K, 1776.1 kPa	31.42
378.01 K, 2481.6 kPa	47.245
378.01 K, 3335.4 kPa	71.042
378.02 K, 579.55 kPa	9.241
378.02 K, 4235.2 kPa	106.825
